{"source": "patent US20240180895A1", "about": "“USE OF KAPPA OPIOID RECEPTOR AGONISTS TO TREAT CARDIOVASCULAR DISEASE” (Board of Supervisors of Louisiana State University and …, priority 2021, published 2024)", "key": {"[1]": {"system": "conscious Sprague-Dawley rats", "assay": "Metabolic cage renal excretory studies, oral gavage (Example 3)", "type": "in vivo, rat", "description": "Animals: Male Sprague-Dawley (SD) rats (Envigo Labs, Indianapolis, IN), 300-350 g, were individually housed under a 12 h light-dark cycle and allowed tap water and standard rodent diet ad libitum. Rats were randomly assigned to experimental groups for all acute and subacute studies. All procedures were approved by the Louisiana State University Health Sciences Center Institutional Animal Care and Use Committee and conducted in accordance with the National Institutes of Health guidelines for the care and use of animals.\nMetabolic Cage Renal Excretory Studies: Rats were placed in metabolic cages (model 18cv, Fenco, Cataumet, MA) for 2 hours to allow for acclimation and voiding of residual urine. Following the acclimation period, rats were volume loaded with 20 cc kg^−1 drug or vehicle (isotonic saline) via oral gavage. Urines were collected each hour over a 5-hour period. Following completion of the study rats were returned to their home cages. […] These points are marked on the figures with number of measurements in parentheses.\nExperimental Design and Analysis: All results are expressed as mean±SEM. […] Means between groups for total urine output, Na^+ concentration, K^+ concentration, and urine osmolality were compared using a Student's t-test. Statistical significance was characterized as P<0.05. Statistics were carried out using Prism 7.05 software (GraphPad Software, Inc., San Diego, CA) and IBM SPSS Statistics (IBM, Armonk, NY)."}, "[2]": {"system": "conscious Sprague-Dawley rats", "assay": "Acute cardiovascular and renal excretory studies with ICV or IV norBNI pretreatment (Example 4)", "type": "in vivo, rat", "conditions": "for Total urine output: difelikefalin 10 μg/kg or nalfurafine 5 μg/kg IV, 90 min; for Urine osmolality / Urine potassium concentration [K+] / Urine sodium concentration [Na+]: total 90-min urine", "description": "Male Sprague-Dawley rats (Envigo Labs, Indianapolis, IN) were individually housed, allowed tap water and standard rodent diet ad libitum, and kept under a 12-hour light-dark cycle. Rats used in these experiments weighed between 300 and 350 grams and were randomly assigned to experimental groups. All procedures were conducted in accordance with the National Institutes of Health guidelines for the care and use of animals and approved by the Louisiana State University Health Sciences Center Institutional Animal Care and Use Committee.\nAseptic technique was adhered to for all surgeries and detailed surgical methods were followed as previously described.^14 Briefly, 3-5 days before experimentation, rats requiring central ventricle access for administration of drug/vehicle into the brain were anesthetized with ketamine and xylazine and a stainless-steel cannula was stereotaxically implanted into the right lateral cerebral ventricle.^14\nOn the morning of the experiment, rats were anesthetized and maintained with inhaled 2% isoflurane, and polyethylene catheters were surgically placed into the left femoral artery, left femoral vein, and urinary bladder.^15.16 Following surgery, rats were placed in an elevated restrainer for recovery and collection of urine from an indwelling bladder catheter.^15 After completion of experimental protocols, rats were anesthetized with isoflurane and decapitated.\nDuring stabilization of cardiovascular and renal excretory parameters, rats received an isotonic saline infusion (55 μl/min), which lasted throughout the duration of the experiment. To record mean arterial pressure (MAP) and heart rate (HR), arterial catheters were connected to a pressure transducer (MLT0670, ADInstruments, Sydney, Australia), which was connected to Powerlab 8/30 (ADInstruments) and visualized using LabChart software (v8.1.5; ADInstruments). After one hour of recovery from surgery, rats were pretreated with the KOR antagonist norBNI or isotonic saline vehicle through either an intracerebroventricular (ICV) catheter or intravenous (IV) catheter. […] Next, drug or vehicle (isotonic saline) was injected into the femoral vein and urine samples were collected every 10 minutes during a 90-minute experimental period. The following drug concentrations were used: nalfurafine 5 μg/kg, difelikefalin 10 μg/kg, norBNI 30 mg/kg (IV), norBNI 1 μg/5 μL (ICV). All groups are n=6. Urine sodium and potassium were measured using a flame photometer (model 943; Instrumentation Laboratories, Lexington, MA). Urine volume was measured gravimetrically, and urine osmolality was measured using a vapor pressure osmometer (model 5600; WESCOR, Logan, UT).\nAll results are expressed as mean±SEM. For determining statistically different changes at time points within a treatment group, means were compared to the control value using 2-way ANOVA with repeated measures and a post hoc Dunnett test following confirmation of a significant F value. For statistically different changes at individual time points between treatment groups, mean values were compared using 2-way ANOVA with repeated measures and a post hoc Sidak test following confirmation of a significant/value. For means between groups for total urine output, urine sodium concentration, urine potassium concentration, and urine osmolality, a Student/test was used. Statistical significance was characterized as P<0.05 and statistics were performed on Prism 7.05 software (GraphPad Software, Inc, San Diego, CA)."}, "[3]": {"system": "spontaneously hypertensive rats", "assay": "Chronic subcutaneous infusion of nalfurafine, radiotelemetry blood pressure (FIG. 19)", "type": "in vivo, rat", "description": "Male spontaneously hypertensive rats (SHR; Charles Rivers) were single housed and allowed tap water and standard rodent diet ad libitum. All procedures and experiments were conducted in accordance with the National Institutes of Health guidelines for the care and use of animals.\nRadiotelemetry transmitters (Data Sciences International, St. Paul, MN) were implanted into SHR for chronic recording of blood pressure and heart rate and followed as previously published.^56 Briefly, rats were anesthetized and maintained on 2% isoflurane and the right femoral artery was surgically exposed. The transmitter catheter was inserted into the femoral artery and advanced until reaching the abdominal aorta. The site exposing the femoral artery was sutured and rats were allowed 1 week of recovery. Telemetry data was analyzed using Ponemah software (DSI, St. Paul, MN).\nIn a separate cohort, spontaneously hypertensive rats were administered a subcutaneous nalfurafine infusion (0.3 mg/day) or vehicle (isotonic saline) using an osmotic pump (2ML4; Alzet) for 4 weeks. For the insertion of the osmotic pumps, rats were anesthetized and maintained under 2% isoflurane, a small incision was made at the nape, and the osmotic pump was inserted between the scapulae. The incision was sutured, and rats were returned to their home cages. Blood pressure was recorded throughout the entirety of the experiment and the 20:00-22:00 time frame was plotted.\nAll results are expressed as mean±SEM. Statistically different changes for both experimental protocols were determined using 2-way ANOVA with repeated measures and were considered statistically different following a significant/value for an interaction between experimental group and time. Statistical significance was determined as P<0.05, and statistics were performed on Prism 7.05 software (GraphPad Software, Inc, San Diego, CA)."}, "hemodialysis patients": {"system": "hemodialysis patients", "conditions": "nearly 4000 hemodialysis patients (Kozono, Yoshitani, et al., 2018); cited from earlier work"}, "[4]": {"conditions": "oral gavage, cumulative 5-hour urine, same doses, mean±SEM"}, "[5]": {"conditions": "ICV norBNI (1 μg/5 μL) pretreatment"}, "[6]": {"conditions": "IV norBNI (30 mg/kg) pretreatment"}, "[7]": {"conditions": "subcutaneous infusion 0.3 mg/day, 30 days"}}}
{"smiles": "CN(C(=O)/C=C/c1ccoc1)[C@@H]1CC[C@@]2(O)[C@H]3Cc4ccc(O)c5c4[C@@]2(CCN3CC2CC2)[C@H]1O5", "note": "[nalfurafine, Nalfurafine]", "values": [{"measurement": "Time of peak diuresis", "setting": "[1]; after oral gavage 150 μg kg−1", "value": 2, "unit": "h"}, {"measurement": "Potassium concentration [K+] in cumulative urine", "setting": "[1]; [4]", "value": "14.55±1.46", "unit": "μeq ml^−1"}, {"measurement": "Sodium concentration [Na+] in cumulative urine", "setting": "[1]; [4]", "value": "16.92±1.45", "unit": "μeq ml^−1"}, {"measurement": "Total urine output", "setting": "[1]; oral gavage, cumulative urine of 5-hour protocol, nalfurafine 150 μg kg−1, furosemide 50 mg kg−1, HCTZ 5 mg kg−1, amiloride 5 mg kg−1, mean±SEM, n=6", "value": "14.55 ± 0.57", "unit": "mL"}, {"measurement": "Effect on MAP", "setting": "[2]; [5]", "value": "prevented the decrease in MAP"}, {"measurement": "Total urine output", "setting": "[2]; [5]", "value": "4.72 ± 0.41", "unit": "mL"}, {"measurement": "Urine osmolality", "setting": "[2]; [5]", "value": "358.5 ± 30.6", "unit": "mmol/kg"}, {"measurement": "Urine potassium concentration [K+]", "setting": "[2]; [5]", "value": "12.77±3.99", "unit": "μeq/mL"}, {"measurement": "Urine sodium concentration [Na+]", "setting": "[2]; [5]", "value": "82.33±7.74", "unit": "μeq/mL"}, {"measurement": "Total urine output", "setting": "[2]; ICV vehicle (5 μL) pretreatment", "value": "8.37 ± 0.40", "unit": "mL"}, {"measurement": "Effect on HR", "setting": "[2]; ICV vehicle pretreatment", "value": "slight but statistically significant increase in HR"}, {"measurement": "MAP peak Δ", "setting": "[2]; ICV vehicle pretreatment, peak at 60 min (difelikefalin), 50 min (nalfurafine)", "value": "−6", "unit": "mmHg"}, {"measurement": "Urine osmolality", "setting": "[2]; ICV vehicle pretreatment", "value": "164 ± 8.09", "unit": "mmol/kg"}, {"measurement": "Urine potassium concentration [K+]", "setting": "[2]; ICV vehicle pretreatment", "value": "8.19±2.15", "unit": "μeq/mL"}, {"measurement": "Urine sodium concentration [Na+]", "setting": "[2]; ICV vehicle pretreatment", "value": "37.78±5.35", "unit": "μeq/mL"}, {"measurement": "Effect on HR", "setting": "[2]; [6]", "value": "did not produce any change in HR"}, {"measurement": "MAP peak Δ", "setting": "[2]; IV norBNI (30 mg/kg) pretreatment, 80-minute peak for difelikefalin", "value": "abolished"}, {"measurement": "Total urine output", "setting": "[2]; [6]", "value": "5.03 ± 0.39", "unit": "mL"}, {"measurement": "Urine osmolality", "setting": "[2]; [6]", "value": "439.2 ± 24.02", "unit": "mmol/kg"}, {"measurement": "Urine potassium concentration [K+]", "setting": "[2]; [6]", "value": "10.94±1.09", "unit": "μeq/mL"}, {"measurement": "Urine sodium concentration [Na+]", "setting": "[2]; [6]", "value": "109.1±7.85", "unit": "μeq/mL"}, {"measurement": "Total urine output", "setting": "[2]; IV vehicle (2 cc/kg) pretreatment", "value": "9.37 ± 0.42", "unit": "mL"}, {"measurement": "Effect on HR", "setting": "[2]; IV vehicle pretreatment", "value": "did not produce any change in HR"}, {"measurement": "Urine osmolality", "setting": "[2]; IV vehicle pretreatment", "value": "148.7 ± 4.4", "unit": "mmol/kg"}, {"measurement": "Urine potassium concentration [K+]", "setting": "[2]; IV vehicle pretreatment", "value": "5.49±0.68", "unit": "μeq/mL"}, {"measurement": "Urine sodium concentration [Na+]", "setting": "[2]; IV vehicle pretreatment", "value": "32.56±3.05", "unit": "μeq/mL"}, {"measurement": "Decrease in systolic, diastolic, and mean arterial pressure", "setting": "[3]; 1 day of subcutaneous nalfurafine infusion 0.3 mg/day, 20:00-22:00 time frame", "value": "~20", "unit": "mmHg"}, {"measurement": "Heart rate vs vehicle", "setting": "[3]; [7]", "value": "significantly lower heart rate than the vehicle treated group on day 9, day 16-22, and day 25-30"}, {"measurement": "Systolic, diastolic, mean arterial pressure and heart rate over time", "setting": "[3]; [7]", "value": "did not demonstrate an increase in these parameters"}, {"measurement": "Dysphoric adverse effects", "setting": "hemodialysis patients", "value": "did not cause the typical dysphoric adverse effects"}]}
